Test results published in ChEMBL document CHEMBL1140913, “Discovery and structure-activity relationships of trisubstituted pyrimidines/pyridines as novel calcium-sensing receptor antagonists” (J Med Chem, 2009).
≈ marks a conversion by molar mass, not a printed value.

System: not listed separately
Assay: Aqueous solubility at pH 6.5
Assay type: physicochemical

Row | solubility | SMILES
1 | < 1 µg/mL | CCN(Cc1ccccc1)c1ncc(C(=O)NCCOc2ccccc2)c(-c2cc(OC)c(OC)c(OC)c2)n1
2 | 11 µg/mL (≈ 20.8 µM) | COc1ccc(-c2nc(N[C@H](CO)Cc3ccccc3)ccc2C(=O)NCCOc2ccccc2)c(OC)n1

System: not listed separately
Assay: Aqueous solubility at pH 4.5
Assay type: physicochemical

Row | solubility | SMILES
3 | < 1 µg/mL | CCN(Cc1ccccc1)c1ncc(C(=O)NCCOc2ccccc2)c(-c2cc(OC)c(OC)c(OC)c2)n1
4 | 36 µg/mL (≈ 68.1 µM) | COc1ccc(-c2nc(N[C@H](CO)Cc3ccccc3)ccc2C(=O)NCCOc2ccccc2)c(OC)n1

Biological target: T1, Extracellular calcium-sensing receptor (Homo sapiens, UniProt P41180)
T1 sequence (P41180 whole entry): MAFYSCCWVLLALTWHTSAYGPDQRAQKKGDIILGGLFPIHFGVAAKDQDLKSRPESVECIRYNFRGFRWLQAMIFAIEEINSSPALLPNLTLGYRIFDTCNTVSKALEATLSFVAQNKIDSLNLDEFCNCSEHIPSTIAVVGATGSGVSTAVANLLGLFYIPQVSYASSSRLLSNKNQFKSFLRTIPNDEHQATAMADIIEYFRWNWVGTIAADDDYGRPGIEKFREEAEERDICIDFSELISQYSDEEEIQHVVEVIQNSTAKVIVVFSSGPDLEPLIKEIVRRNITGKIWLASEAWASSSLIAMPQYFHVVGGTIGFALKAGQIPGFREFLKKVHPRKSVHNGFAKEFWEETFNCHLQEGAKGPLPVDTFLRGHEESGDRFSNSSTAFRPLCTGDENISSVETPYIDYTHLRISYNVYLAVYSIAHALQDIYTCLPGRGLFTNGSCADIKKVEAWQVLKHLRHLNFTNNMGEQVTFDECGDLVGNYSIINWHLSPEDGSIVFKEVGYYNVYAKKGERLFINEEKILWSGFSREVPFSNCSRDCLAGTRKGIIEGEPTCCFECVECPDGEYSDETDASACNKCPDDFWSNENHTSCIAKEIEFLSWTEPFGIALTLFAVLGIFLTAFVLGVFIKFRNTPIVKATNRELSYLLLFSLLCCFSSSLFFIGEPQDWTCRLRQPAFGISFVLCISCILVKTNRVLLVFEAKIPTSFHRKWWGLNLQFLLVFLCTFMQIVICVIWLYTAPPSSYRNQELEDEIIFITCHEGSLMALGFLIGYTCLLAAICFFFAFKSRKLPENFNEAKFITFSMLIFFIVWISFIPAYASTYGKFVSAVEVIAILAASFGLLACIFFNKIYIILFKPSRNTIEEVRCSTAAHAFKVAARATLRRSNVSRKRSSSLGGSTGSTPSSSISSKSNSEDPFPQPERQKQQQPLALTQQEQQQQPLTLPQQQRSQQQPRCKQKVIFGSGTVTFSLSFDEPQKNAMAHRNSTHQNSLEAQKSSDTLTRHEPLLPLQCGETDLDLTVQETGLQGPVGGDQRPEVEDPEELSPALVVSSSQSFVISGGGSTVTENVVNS
Assay: Antagonist activity at calcium-sensing receptor expressed in HEK293 cells by FLIPR assay
Assay type: functional, cell-based

Row | SMILES | IC50
5 | COc1cc(-c2nc(NCc3ccccc3C)ncc2C(=O)NCCOc2ccccc2)cc(OC)c1OC | 10000 nM
6 | COc1ccc(-c2nc(NCc3ccc4c(c3)OCO4)ncc2C(=O)NC(C)Cc2ccc(Cl)cc2)c(OC)n1 (stereo not drawn) | 150 nM
7 | CCN(Cc1ccccc1)c1ccc(C(=O)NCCOc2ccccc2)c(-c2cc(OC)c(OC)c(OC)c2)n1 | 154 nM
8 | COc1cc(-c2nc(N[C@H](CO)Cc3ccccc3)ccc2C(=O)NCCOc2ccccc2)cc(OC)c1OC | 76 nM
9 | COc1ccc(-c2nc(NCc3ccc4c(c3)OCO4)ccc2C(=O)NCCOc2ccccc2)c(OC)n1 | 60 nM
10 | COc1ccc(-c2nc(NCc3ccc4c(c3)OCO4)ncc2C(=O)N2CCc3ccccc3C2)c(OC)n1 | 360 nM
11 | COc1ccc(-c2nc(NCc3cccc(Cl)c3)ccc2C(=O)NCCOc2ccccc2)c(OC)n1 | 197 nM
12 | COc1cc(OC)cc(-c2nc(N(C)Cc3ccccc3)ncc2C(=O)NCCOc2ccccc2)c1 | > 30000 nM
13 | CCN(Cc1ccccc1)c1ncc(C(=O)NCCCc2ccccc2)c(-c2cc(OC)c(OC)c(OC)c2)n1 | 2100 nM
14 | CCN(Cc1ccccc1)c1ncc(C(=O)NCCc2ccccc2)c(-c2cc(OC)c(OC)c(OC)c2)n1 | > 30000 nM
15 | COc1cc(-c2nc(N[C@@H](CO)Cc3ccccc3)ncc2C(=O)NCCOc2ccccc2)cc(OC)c1OC | > 30000 nM
16 | COc1ccc(-c2nc(N(C)Cc3ccccc3)ncc2C(=O)NCCOc2ccccc2)cc1 | > 30000 nM
17 | COc1cccc(-c2nc(N(C)Cc3ccccc3)ncc2C(=O)NCCOc2ccccc2)c1 | > 30000 nM
18 | COc1ccccc1-c1nc(N(C)Cc2ccccc2)ncc1C(=O)NCCOc1ccccc1 | > 30000 nM
19 | CCN(Cc1ccccc1)c1ncc(C(=O)NCCOc2ccccc2)c(C2CCCCC2)n1 | > 30000 nM
20 | CCN(Cc1ccccc1)c1ncc(C(=O)NCCOc2ccccc2)c(-c2ccccc2)n1 | > 30000 nM
21 | COc1ccc(-c2nc(N(C)Cc3ccccc3)ncc2C(=O)NCCOc2ccccc2)cc1OC | 6900 nM
22 | COc1cc(-c2nc(NCc3ccccn3)ncc2C(=O)NCCOc2ccccc2)cc(OC)c1OC | > 30000 nM
23 | COc1cc(-c2nc(NCCc3cccnc3)ncc2C(=O)NCCOc2ccccc2)cc(OC)c1OC | > 30000 nM
24 | COc1cc(-c2nc(NCCc3ccccn3)ncc2C(=O)NCCOc2ccccc2)cc(OC)c1OC | > 30000 nM
25 | COc1cc(-c2nc(N(C)CCc3ccccc3)ncc2C(=O)NCCOc2ccccc2)cc(OC)c1OC | 1500 nM
26 | COc1cc(-c2nc(N[C@H](CO)Cc3ccccc3)ncc2C(=O)NCCOc2ccccc2)cc(OC)c1OC | 150 nM
27 | COc1cc(-c2nc(NCc3ccc4c(c3)OCO4)ncc2C(=O)NCCOc2ccccc2)cc(OC)c1OC | 150 nM
28 | COc1cc(-c2nc(N(C)Cc3ccccc3)ncc2C(=O)NCCOc2ccccc2)cc(OC)c1OC | 470 nM
29 | COc1ccc(-c2nc(N[C@H](CO)Cc3ccccc3)ccc2C(=O)NCCOc2ccccc2)c(OC)n1 | 140 nM
30 | COc1cc(-c2nc(NCc3cccnc3)ncc2C(=O)NCCOc2ccccc2)cc(OC)c1OC | > 30000 nM
31 | COc1ccc(CNc2ncc(C(=O)NCCOc3ccccc3)c(-c3cc(OC)c(OC)c(OC)c3)n2)cc1 | 3100 nM

More lines, in order of falling IC50, values ahead:

Row | IC50 | SMILES
32 | 18900 nM | CN(Cc1ccccc1)c1ncc(C(=O)NCCOc2ccccc2)c(-c2ccc(C(F)(F)F)cc2)n1
33 | 4900 nM | COc1cc(-c2nc(NCc3ccccc3Cl)ncc2C(=O)NCCOc2ccccc2)cc(OC)c1OC
34 | 2800 nM | COc1ccc(CCNc2ncc(C(=O)NCCOc3ccccc3)c(-c3cc(OC)c(OC)c(OC)c3)n2)cc1
35 | 2200 nM | COc1cc(-c2nc(NCCC(C)C)ncc2C(=O)NCCOc2ccccc2)cc(OC)c1OC
36 | 1800 nM | CCN(Cc1ccccc1)c1ncc(C(=O)NCCCCc2ccccc2)c(-c2cc(OC)c(OC)c(OC)c2)n1
37 | 1050 nM | CCN(Cc1ccccc1)c1ccc(C(=O)NCCOc2ccccc2)c(-c2ccc(OC)nc2OC)n1
38 | 1000 nM | COc1cccc(CCNc2ncc(C(=O)NCCOc3ccccc3)c(-c3cc(OC)c(OC)c(OC)c3)n2)c1
39 | 730 nM | COc1cc(-c2nc(NCc3ccccc3)ncc2C(=O)NCCOc2ccccc2)cc(OC)c1OC
40 | 400 nM | COc1cc(-c2nc(NCCc3ccccc3)ncc2C(=O)NCCOc2ccccc2)cc(OC)c1OC
41 | 360 nM | CCN(Cc1ccccc1)c1ncc(C(=O)NCCOc2ccccc2)c(-c2ccc(OC)nc2OC)n1
42 | 340 nM | COc1cccc(CNc2ncc(C(=O)NCCOc3ccccc3)c(-c3cc(OC)c(OC)c(OC)c3)n2)c1
43 | 340 nM | COc1ccccc1CCNc1ncc(C(=O)NCCOc2ccccc2)c(-c2cc(OC)c(OC)c(OC)c2)n1
44 | 220 nM | COc1ccc(-c2nc(NCc3ccc4c(c3)OCO4)ncc2C(=O)NCCOc2ccccc2)c(OC)n1
45 | 200 nM | CCN(Cc1ccccc1)c1ncc(C(=O)NCCOc2ccccc2)c(-c2cc(OC)c(OC)c(OC)c2)n1
46 | 162 nM | COc1cc(-c2nc(NCc3cccc(Cl)c3)ccc2C(=O)NCCOc2ccccc2)cc(OC)c1OC
47 | 130 nM | COc1cc(-c2nc(NCc3ccc4c(c3)OCO4)ccc2C(=O)NCCOc2ccccc2)cc(OC)c1OC
48 | 70 nM | COc1cc(-c2nc(NCc3cccc(Cl)c3)ncc2C(=O)NCCOc2ccccc2)cc(OC)c1OC
